Here are results for 31 compounds from the METLIN SMRT retention time set (Domingo-Almenara et al. 2019).

The structures appear in SMILES notation.

The nature of this data set: gradient 5% acetonitrile 3 min, to 50% in 2 min, to 85% in 15 min, held 3 min, 100 µL/min. As to conditions: column: Zorbax Extend-C18 2.1 x 50 mm; eluents: water / acetonitrile, 0.1% formic acid. In a few lines: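 Standards, all pure, were combined into mixtures of ~100 molecules and run at 100 μL/min on a Zorbax Extend-C18 column (2.1 × 50 mm, 1.8 μm) with water and acetonitrile, each containing 0.1% formic acid. A coupled quadrupole time-of-flight mass spectrometer operated in positive and negative ionization mode. Retention time values come from computationally picked adduct peaks, each inspected manually.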
As to `CN(C)c1nc2ncn3c(=O)n(CC(=O)NCCc4ccc(Cl)cc4)nc3c2s1`, the RP-LC retention time was 706 s.
Under `CCc1ccc(NC(=O)C(C)Oc2cc(C(F)(F)F)c3c(C)nn(C)c3n2)cc1` (stereo unspecified) stands 1030 s; under `O=C1[C@H]2CN(Cc3ccc(C(F)(F)F)cc3)C[C@H]2C(=O)N1CCc1ccccc1`, 984 s.
Under `COCCNC(=O)c1csc(N2CCN(c3cccc(OC)c3)CC2)n1` stands 855 s; under `O=C(c1cccnn1)N1C[C@@H](COCC2CC2)[C@H](c2ccncc2)C1`, 563 s; under `CC(NC(=O)c1ccco1)c1nc2ccccc2n1CC(=O)N(C(C)C)C(C)C` (stereo unspecified), 691 s.
On to `Cn1c(=O)cc(N2CCC[C@@H](N)C2)n(Cc2ccccc2C#N)c1=O`, for which the RP-LC retention time is 641 s.
Regarding `COc1ccc(Cl)cc1C(=O)NCC(c1ccsc1)N1CCCC1` (stereo unspecified), the RP-LC retention time came out at 582 s.
To `CN1C(=O)c2cc(S(=O)(=O)NCc3ccc(F)cc3)ccc2Oc2cccnc21` belongs 951 s; to `COc1ccc(OCC(=O)N(C)CCc2noc(COc3ccccc3F)n2)cc1`, 848 s; to `CC1=C(c2ccccc2)S(=O)(=O)N=C1N1CCN(c2ccccn2)CC1`, 632 s.
To `CC(=O)Nc1c(C)noc1/C=C\c1ccc(S(=O)(=O)N2CCN(c3ncccn3)CC2)cc1` belongs 762 s.
Under `COc1cccc(NC(=O)N2CCC(c3nc4ccncc4n3C(C)C)C2)c1` (stereo unspecified) stands 535 s; under `CCOC(=O)c1c(S(=O)(=O)N2CCc3ccccc3C2)c(C)n(C)c1C`, 989 s.
Turning to `O=C(Cc1csc2nc(-c3cccc(Cl)c3)cn12)Nc1ccc(F)cc1F`, the RP-LC retention time came to 942 s.
Under `Brc1cccc(-c2nnc(Cc3nc(-c4cccnc4)no3)o2)c1` stands 845 s; under `Cc1nc2cc(-c3noc(Cc4cccc5ccccc45)n3)ccc2o1`, 1130 s.
Under `CC(C)n1c(CCNC(=O)c2ccc(F)cc2)nc2cccnc21` stands 656 s; under `CC1=C2C(=O)[C@H]3[C@@H](CC=C4C[C@@H](O)CC[C@@]43C)[C@@H]2CC[C@]12O[C@@H]1C[C@H](C)CN[C@H]1C2C` (stereo partly specified), 699 s.
Under `Cc1cc(C)cc(S(=O)(=O)N2CCC(c3nc(C(=O)N(C)C)c(C)o3)CC2)c1` stands 882 s; under `O=C(Nc1cccc(F)c1)[C@@H]1OCC(=O)N(C2CC2)[C@H]1c1ccccc1`, 849 s; under `O=C(CCn1cnc2cc(-c3noc(-c4cccc(Cl)c4)n3)ccc21)N1CCOCC1`, 754 s.
As for `CC(C)OCCCNC(=O)c1c2c(cn(-c3ccc(F)cc3)c1=O)C(=O)CC(C)(C)C2`, the RP-LC retention time came to 885 s.
Compound `O=C(C1=CN(c2ccccc2F)c2cc(F)ccc2S1(=O)=O)N1CCOCC1` showed an RP-LC retention time of 740 s.
To `CC1=C(C(=O)N2CCOCC2)C(c2cc(Br)ccc2F)C2=C(CCCC2=O)N1` (stereo unspecified) belongs 659 s; to `COc1ccc(-c2ncc3c(n2)CCN(C(=O)Nc2ccc(C)c(F)c2)C3)cc1`, 996 s.
To `Cc1ccc2nc(-c3cccc(Cl)c3)c(Nc3ccc4c(c3)OCCO4)n2c1` belongs 724 s; to `Cc1cc(C)cc(NC(=O)Cc2ccc(OC(C)(C)C(=O)O)cc2)c1`, 969 s; to `CN(C)c1cc(OC2CCN(C(=O)c3cnn4cccnc34)C2)ncn1` (stereo unspecified), 578 s.
Under `Cc1cc2nn(CC(=O)Nc3ccc(F)c(F)c3)c(=O)n2c(Nc2ccc(F)cc2)n1` stands 1020 s; under `Cc1ccc2c(c1)N(C(=O)Cn1ccn3nc(-c4ccccc4)c(CO)c3c1=O)CCO2`, 908 s.
